# Experimental data as given in patent publication US20260116910A1, “POLYCYCLIC COMPOUNDS AND METHODS THEREOF” (HEPAITECH (BEIJING) BIOPHARMA TECHNOLOGY CO., LTD., priority 2021, published 2026).
# Where two headings read alike, the source gives them in different places.
# Assays:
# [1] = target: MRGPRX4 (Homo sapiens, UniProt Q96LA9); assay: MRGPRX4 activation, Fluo-8 Ca2+ FLIPR assay in HEK293T cells stably expressing MRGPRX4; assay type: cell-based; parameters: key to MRGPRX4 activation, Average / MRGPRX4 activation, Ave.: fluorescence change dF/F0; conditions: for EC50: MRGPRX4 activation, Ca2+ fluorescence, no activation in tested range reported as III, read-out: Activity (EC50 μM)
# Protocol: In some embodiments, cells were cultured in poly-D-Lys coated blacked walled, clear-bottom 96-well microplates. HEK293T cells stably expressing MRGPRX4 were cultured in DMEM medium supplemented with 10% FBS and 1% PS, at 37° C. in a humidified atmosphere with 5% CO2. Cells were detached by centrifuging (1000 rpm, 3 min). The pellet was re-suspended in medium, and cell density was adjusted to about 1×10^6 cells/mL. 100 μL suspension was seeded to each well of a microplates (cell plate). Cells in the microplates were cultured overnight. In the following day, cells were grown to higher than 95% density in each well.
# Ca^2+ fluorescent dye loading: Fluo-8 AM (Screen Quest Fluo-8 AM Calcium Assay Kit, AAT Bioquest, cat. #: 21083) was diluted in HHBS buffer and adjusted to 2 μM (dye buffer). Medium in each well was changed into 50 μL dye buffer carefully. After incubation for 40-60 min under room temperature, the dye buffer was changed into 50 μL HHBS buffer.
# The concentration of solution should be determined according to the protocol settings and experimental needs (e.g., Log[M]=−4, −5, −6, −7, −8, and −9). Prepare 2× serial dilution series of compounds (at least 75 μL per well).
# A fluorescent signal baseline was measured using FLIPR®Tetra for 30 s. Then 50 μL of the chemical solution would be added to the cell plate. The fluorescent signal would be measured for another 150 s.
# Activity of each compound was calculated by the fluorescence change (dF/F0). Curves were fitted to obtain EC50 values. In some embodiments, at least 3 repeats were performed to obtain the average values. For assessment of a compound, gradient diluted solutions of different concentrations were used to treat cells and corresponding responses were used to fit sigmoid function and to derive EC50 in Origin. In some embodiments, assessed concentrations were or included about 10^−4, 10^−4.5, 10^−5, 10^−5.5, 10^−6, 10^−6.5, 10^−7, 10^−8, and/or 10^−9 M; for example, in many instances, assessed concentrations included about 10^−5, 10^−6, 10^−7 and 10^−8 M. In some embodiments, assessed concentrations were about 10^−4, 10^−4.5, 10^−5, 10^−5.5, 10^−6, 10^−7, 10^−8, and 10^−9 M. In some embodiments, assessed concentrations were about 10^−4, 10^−5, 10^−6, 10^−7, 10^−8, and 10^−9 M. In some embodiments, assessed concentrations were about 10^−4, 10^−4.5, 10^−5, 10^−5.5, 10^−6, and 10^−7 M. In some embodiments, assessed concentrations were about 2000000, 1000000, 500000, 250000, 125000, 62500, 31250, 15625, 7813, 3906 nM. […] In some embodiments, assessed concentrations were about 30000, 10000, 3333, 1111, 370, 123, 41, 14, 4.6, 1.5 nM.
# [2] = target: T1, human FXR (NR1H4) (Homo sapiens, UniProt Q96RI1); assay: Human FXR (NR1H4) agonist assessment, FXRE-NanoLuc reporter in HEK293T cells; assay type: cell-based; conditions: for EC50: read-out: EC50
# T1 sequence (Q96RI1 1-476 isoform Q96RI1-1): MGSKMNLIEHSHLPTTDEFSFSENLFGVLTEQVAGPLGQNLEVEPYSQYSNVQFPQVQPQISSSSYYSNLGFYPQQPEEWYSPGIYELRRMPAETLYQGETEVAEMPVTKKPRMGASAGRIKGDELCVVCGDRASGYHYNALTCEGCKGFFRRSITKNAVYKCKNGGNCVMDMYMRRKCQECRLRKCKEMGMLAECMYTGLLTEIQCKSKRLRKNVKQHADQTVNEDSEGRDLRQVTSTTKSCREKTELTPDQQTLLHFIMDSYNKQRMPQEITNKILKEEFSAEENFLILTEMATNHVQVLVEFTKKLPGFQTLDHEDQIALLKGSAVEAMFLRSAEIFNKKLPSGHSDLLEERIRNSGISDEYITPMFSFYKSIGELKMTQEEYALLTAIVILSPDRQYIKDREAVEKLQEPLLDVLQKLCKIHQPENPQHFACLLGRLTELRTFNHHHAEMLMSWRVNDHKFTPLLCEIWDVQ
# Protocol: As those skilled in the art appreciate, various technologies are available for assessment of FXR activation in accordance with the present disclosure. […] Human FXR (NR1H4) agonist assessment (see, e.g., Yu et al. eLife 2019; 8: e48431): HEK293T cells stably expressing human FXR and containing FXR response element (FXRE)-NanoLuc reporter were cultured in DMEM medium supplemented with 10% FBS and 1% PS, at 37° C. in a humidified atmosphere with 5% CO2. Cells were detached by centrifuging (1000 rpm, 3 min). The pellet was re-suspended in medium, and cell density was adjusted to about 1×10^6 cells/mL. 100 μL suspension was seeded to each well of a white-walled, clear-bottom 96-well microplates (cell plate). Cells in microplates were cultured overnight.
# In the following day, cells were grown to higher than 95% density in each well. Culture medium was replaced, and compounds were added to the wells. 0.01% DMSO (v/v) served as negative control. Plates were incubated at 37° C. in 5% CO2 for 24 hr.
# In the following day, a 10 μL aliquot of cell culture medium was removed from each well and combined with 40 μL culture medium plus […] assay buffer (containing 20 mM of the luciferase substrate coelenterazine). After 5 min incubation, luminescence was measured using an EnVision plate reader (PerkinElmer).
# In some embodiments, gradient diluted solutions of several concentrations were used to treat cells and corresponding responses were used to fit sigmoid function and to derive EC50 in Origin.
# [3] = FXR activation, HEK293T FXRE-NanoLuc reporter, 24 hr
# Sequence of MRGPRX4 (Q96LA9 whole entry): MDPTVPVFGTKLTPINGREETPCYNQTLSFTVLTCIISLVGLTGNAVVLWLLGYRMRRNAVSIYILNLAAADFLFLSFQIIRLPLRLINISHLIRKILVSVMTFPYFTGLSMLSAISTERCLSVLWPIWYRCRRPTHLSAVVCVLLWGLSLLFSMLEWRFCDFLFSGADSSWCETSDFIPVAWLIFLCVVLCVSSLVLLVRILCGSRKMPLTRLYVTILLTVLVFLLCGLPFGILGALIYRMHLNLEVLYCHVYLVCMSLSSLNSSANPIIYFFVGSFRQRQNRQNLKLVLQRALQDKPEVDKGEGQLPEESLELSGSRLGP
smiles,measurement,setting,value
C[C@H](CCCCC(=O)O)[C@H]1CC[C@H]2[C@@H]3CC[C@@H]4C[C@H](O)CC[C@]4(C)[C@H]3CC[C@]12C [compound 84],"MRGPRX4 activation, fluorescence change (dF/F0), Average",[1]; Conc. (Log[M]) −4,0.287
same,"MRGPRX4 activation, fluorescence change (dF/F0), Average",[1]; Conc. (Log[M]) −4.5,0.065
same,"MRGPRX4 activation, fluorescence change (dF/F0), Average",[1]; Conc. (Log[M]) −5,0.021
same,"MRGPRX4 activation, fluorescence change (dF/F0), Average",[1]; Conc. (Log[M]) −5.5,−0.001
same,"MRGPRX4 activation, fluorescence change (dF/F0), Average",[1]; Conc. (Log[M]) −6,0.009
same,"MRGPRX4 activation, fluorescence change (dF/F0), Average",[1]; Conc. (Log[M]) −7,−0.014
same,"MRGPRX4 activation, fluorescence change (dF/F0), Average",[1]; Conc. (Log[M]) −8,0.002
same,"MRGPRX4 activation, fluorescence change (dF/F0), Average",[1]; Conc. (Log[M]) −9,−0.014
same,EC50,[1],< 50 µM
same,"Efficacy (maximum measured induction of NanoLuc, normalized to CDCA set as 100%)",[2]; [3],B (300%<efficacy <=400%)
same,EC50,[2]; [3],1000 to 10000 nM
CCCCS(=O)(=O)NC(=O)NCC[C@@H](C)[C@H]1CC[C@H]2[C@@H]3[C@H](O)[C@H](CC)[C@@H]4CCCC[C@]4(C)[C@H]3CC[C@]12C [5-14],"MRGPRX4 activation, Average","[1]; E3-6-2, 1st of 6 concentration columns (head not in rows shown)",0.070
same,"MRGPRX4 activation, Average","[1]; E3-6-2, 3rd of 6 concentration columns (head not in rows shown)",0.017
same,"MRGPRX4 activation, Average","[1]; E3-6-2, 6th of 6 concentration columns (head not in rows shown)",0.017
same,"MRGPRX4 activation, Average","[1]; E3-6-2, concentration not given",0.017
same,EC50,[1],> 100 µM
same,"Efficacy (maximum measured induction of NanoLuc, normalized to CDCA set as 100%)",[2]; [3],C (100%<efficacy <=300%)
same,EC50,[2]; [3],< 1000 nM
CC[C@H]1[C@@H](O)[C@@H]2[C@H](CC[C@]3(C)[C@@H]([C@H](C)CCNC(=O)NS(=O)(=O)C[C@]45CCC(CC4=O)C5(C)C)CC[C@@H]23)[C@@]2(C)CCCC[C@@H]12 [5-27],"Efficacy (maximum measured induction of NanoLuc, normalized to CDCA set as 100%)",[2]; [3],A (efficacy >400%)
same,EC50,[2]; [3],< 1000 nM
C[C@H](CCCOC(=O)NS(=O)(=O)c1ccc(C(C)(C)CF)cc1)[C@H]1CC[C@H]2[C@@H]3CC[C@@H]4CCCC[C@]4(C)[C@H]3CC[C@]12C [22-1],"Efficacy (maximum measured induction of NanoLuc, normalized to CDCA set as 100%)",[2],B (key: A: efficacy >400%; B: 300%<efficacy <=400%; C: 100%<efficacy <=300%; D: efficacy <=100%)
same,EC50,[2]; [3],1000 to 10000 nM
CC[C@H]1[C@@H](O)[C@@H]2[C@H](CC[C@]3(C)[C@@H]([C@H](C)CCNC(=O)NS(=O)(=O)c4ccc(C(C)(C)C(=O)OC)cc4)CC[C@@H]23)[C@@]2(C)CCCC[C@@H]12 [5-9],"Efficacy (maximum measured induction of NanoLuc, normalized to CDCA set as 100%)",[2]; [3],B (300%<efficacy <=400%)
same,EC50,[2]; [3],< 1000 nM
CC[C@H]1[C@@H](O)[C@@H]2[C@H](CC[C@]3(C)[C@@H]([C@H](C)CCOC(=O)NS(=O)(=O)c4ccc(C(C)(C)CF)cc4)CC[C@@H]23)[C@@]2(C)CCCC[C@@H]12 [19-3],"Efficacy (maximum measured induction of NanoLuc, normalized to CDCA set as 100%)",[2]; [3],A (efficacy >400%)
same,EC50,[2]; [3],< 1000 nM
CC[C@H]1[C@@H](O)[C@@H]2[C@H](CC[C@]3(C)[C@@H]([C@H](C)Cc4nnn[nH]4)CC[C@@H]23)[C@@]2(C)CCCC[C@@H]12 [16-2],"Efficacy (maximum measured induction of NanoLuc, normalized to CDCA set as 100%)",[2]; [3],C (100%<efficacy <=300%)
same,EC50,[2]; [3],< 1000 nM
CC[C@H]1[C@@H](O)[C@@H]2[C@H](CC[C@]3(C)[C@@H]([C@H](C)CCC(=O)Nc4nnn[nH]4)CC[C@@H]23)[C@@]2(C)CCCC[C@@H]12 [16-1],"Efficacy (maximum measured induction of NanoLuc, normalized to CDCA set as 100%)",[2],B (key: A: efficacy >400%; B: 300%<efficacy <=400%; C: 100%<efficacy <=300%; D: efficacy <=100%)
same,EC50,[2]; [3],1000 to 10000 nM
